Series [1] concerns the target T1, Transient receptor potential cation channel subfamily A member 1 (Homo sapiens, UniProt O75762). In words: Activation of human TRPA1 expressed in HEK293 cells assessed as increase in calcium level at 20 uM by fura2/AM dye based single cell based plate reader analysis.
Series [2] deals with HEK293. In words: Increase in calcium level in HEK293 cells at 20 uM by fura2/AM dye based single cell based plate reader analysis. In kind it is functional. Particulars: Homo sapiens.
Series [3] deals with T1, Transient receptor potential cation channel subfamily A member 1. In words: Activation of human TRPA1 expressed in HEK293 cells assessed as increase in calcium level at 20 uM in presence of TRPA1 channel blocker A-967079 by fura2/AM dye based single cell based plate reader analysis.
For series [4], the system named is HEK293. In words: Increase in calcium level in HEK293 cells at 0.1 to 100 uM by fluo-4 dye based plate reader analysis. In kind it is functional, cell-based. Particulars: Homo sapiens.
Series [5] deals with T1, Transient receptor potential cation channel subfamily A member 1. In words: Activation of human TRPA1 expressed in HEK293 cells assessed as induction of inward current at 10 uM at -70 to +70 mV by whole cell patch clamp assay. In kind it is cell-based. In general terms: The patch-clamp technique gives a direct electrical read-out from membranes.
Series [6] shares this target. In words: Activation of human TRPA1 expressed in HEK293 cells assessed as induction of outward current at 10 uM at -70 to +70 mV in presence of TRPA1 channel blocker A-967079 by whole cell patch clamp assay. In kind it is cell-based.
The target is the same in series [7]. In words: Activation of human TRPA1 expressed in HEK293 cells assessed as increase in calcium level by fluo-4 dye based plate reader analysis. In kind it is cell-based.
For series [8] the target is unchanged. In words: Activation of human TRPA1 expressed in HEK293 cells assessed as induction of outward current at 10 uM at -70 to +70 mV by whole cell patch clamp assay. In kind it is cell-based.
For series [9] the target is unchanged. In words: Activation of human TRPA1 expressed in HEK293 cells assessed as induction of inward current at 10 uM at -70 to +70 mV in presence of TRPA1 channel blocker A-967079 by whole cell patch clamp assay. In kind it is cell-based.
A further series concerns DRG neuron. In words: Increase in calcium level in DRG neurons isolated from TRPA1 deficient mouse at 10 uM by fura2/AM dye based plate reader analysis. In kind it is functional, cell-based.
Series [10] addresses T1, Transient receptor potential cation channel subfamily A member 1. In words: Activation of human TRPA1 expressed in HEK293 cells assessed as induction of current at 1 to 10 uM at +70 mV in presence of extracellular catalase by whole cell patch clamp assay. In kind it is cell-based.
The target is the same in series [11]. In words: Decrease in TRPA1 current amplitude in human TRPA1 expressed HEK293 cells at 10 uM at high voltage by whole cell patch clamp assay. In kind it is cell-based.
Series [12] has the same target. In words: Activation of human TRPA1 expressed in HEK293 cells assessed as induction of current at 1 to 10 uM at +70 mV in presence of intracellular catalase by whole cell patch clamp assay. In kind it is cell-based.
The nature of series [13]: Lipophilicity, logP of compound. Particulars: octanol/water.
Series [14] addresses Transient receptor potential cation channel subfamily A member 1 (Mus musculus) (UniProt Q8BLA8). In words: Activation of TRPA1 in wild type mouse DRG neurons assessed as increase in calcium level at 10 uM by fura2/AM dye based plate reader analysis relative to control.
Series [15] concerns the target T1, Transient receptor potential cation channel subfamily A member 1. In words: Activation of human TRPA1 expressed in HEK293 cells assessed as induction of current at 1 uM at -70 to +70 mV by whole cell patch clamp assay. In kind it is cell-based.
Series [16] shares this target. In words: Activation of human TRPA1 expressed in HEK293 cells assessed as induction of current at 10 uM at -70 to +70 mV by whole cell patch clamp assay. In kind it is cell-based.
Series [17] has as its target Transient receptor potential cation channel subfamily A member 1 (Mus musculus) (UniProt Q8BLA8). In words: Activation of TRPA1 in wild type mouse DRG neurons assessed as increase in calcium level at 10 uM treated after 10 uM Plumbagin pre-treatment by fura2/AM dye based plate reader analysis relative to control.

SMILES strings stand for the structures. Active and inactive are the calls of the source. The calls are words filed in the database; no cut-off is given here.

Chain of Transient receptor potential cation channel subfamily A member 1 (Mus musculus) (Q8BLA8 whole entry): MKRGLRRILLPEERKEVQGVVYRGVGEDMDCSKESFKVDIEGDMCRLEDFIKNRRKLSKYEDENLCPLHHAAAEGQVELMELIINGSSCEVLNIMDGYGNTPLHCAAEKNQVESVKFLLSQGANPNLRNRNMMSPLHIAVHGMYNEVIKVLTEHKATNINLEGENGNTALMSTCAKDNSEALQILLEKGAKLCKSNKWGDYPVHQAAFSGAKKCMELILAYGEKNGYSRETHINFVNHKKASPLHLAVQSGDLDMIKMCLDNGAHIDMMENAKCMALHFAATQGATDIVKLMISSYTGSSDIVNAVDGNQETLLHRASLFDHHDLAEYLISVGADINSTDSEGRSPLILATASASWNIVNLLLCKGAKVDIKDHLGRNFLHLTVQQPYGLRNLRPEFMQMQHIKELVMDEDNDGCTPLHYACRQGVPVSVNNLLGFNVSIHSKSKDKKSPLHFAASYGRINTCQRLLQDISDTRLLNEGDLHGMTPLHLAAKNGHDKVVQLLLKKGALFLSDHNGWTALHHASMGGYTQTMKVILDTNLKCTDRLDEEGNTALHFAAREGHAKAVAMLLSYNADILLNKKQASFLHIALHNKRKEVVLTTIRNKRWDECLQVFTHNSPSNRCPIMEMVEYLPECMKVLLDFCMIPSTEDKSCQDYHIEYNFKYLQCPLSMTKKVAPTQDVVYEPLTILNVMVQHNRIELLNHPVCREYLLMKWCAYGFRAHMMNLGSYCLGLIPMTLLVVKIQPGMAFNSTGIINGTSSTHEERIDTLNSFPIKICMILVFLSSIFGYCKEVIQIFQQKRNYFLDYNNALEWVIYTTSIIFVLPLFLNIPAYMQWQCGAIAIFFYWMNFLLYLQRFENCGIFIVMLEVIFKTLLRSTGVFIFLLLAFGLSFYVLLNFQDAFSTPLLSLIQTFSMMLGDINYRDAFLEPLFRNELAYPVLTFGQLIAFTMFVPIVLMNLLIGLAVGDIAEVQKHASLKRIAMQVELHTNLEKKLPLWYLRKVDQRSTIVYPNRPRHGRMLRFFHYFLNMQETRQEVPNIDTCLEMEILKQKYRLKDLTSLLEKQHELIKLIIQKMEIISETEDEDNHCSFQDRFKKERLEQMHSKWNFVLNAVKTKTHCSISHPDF
T1 sequence (O75762 whole entry): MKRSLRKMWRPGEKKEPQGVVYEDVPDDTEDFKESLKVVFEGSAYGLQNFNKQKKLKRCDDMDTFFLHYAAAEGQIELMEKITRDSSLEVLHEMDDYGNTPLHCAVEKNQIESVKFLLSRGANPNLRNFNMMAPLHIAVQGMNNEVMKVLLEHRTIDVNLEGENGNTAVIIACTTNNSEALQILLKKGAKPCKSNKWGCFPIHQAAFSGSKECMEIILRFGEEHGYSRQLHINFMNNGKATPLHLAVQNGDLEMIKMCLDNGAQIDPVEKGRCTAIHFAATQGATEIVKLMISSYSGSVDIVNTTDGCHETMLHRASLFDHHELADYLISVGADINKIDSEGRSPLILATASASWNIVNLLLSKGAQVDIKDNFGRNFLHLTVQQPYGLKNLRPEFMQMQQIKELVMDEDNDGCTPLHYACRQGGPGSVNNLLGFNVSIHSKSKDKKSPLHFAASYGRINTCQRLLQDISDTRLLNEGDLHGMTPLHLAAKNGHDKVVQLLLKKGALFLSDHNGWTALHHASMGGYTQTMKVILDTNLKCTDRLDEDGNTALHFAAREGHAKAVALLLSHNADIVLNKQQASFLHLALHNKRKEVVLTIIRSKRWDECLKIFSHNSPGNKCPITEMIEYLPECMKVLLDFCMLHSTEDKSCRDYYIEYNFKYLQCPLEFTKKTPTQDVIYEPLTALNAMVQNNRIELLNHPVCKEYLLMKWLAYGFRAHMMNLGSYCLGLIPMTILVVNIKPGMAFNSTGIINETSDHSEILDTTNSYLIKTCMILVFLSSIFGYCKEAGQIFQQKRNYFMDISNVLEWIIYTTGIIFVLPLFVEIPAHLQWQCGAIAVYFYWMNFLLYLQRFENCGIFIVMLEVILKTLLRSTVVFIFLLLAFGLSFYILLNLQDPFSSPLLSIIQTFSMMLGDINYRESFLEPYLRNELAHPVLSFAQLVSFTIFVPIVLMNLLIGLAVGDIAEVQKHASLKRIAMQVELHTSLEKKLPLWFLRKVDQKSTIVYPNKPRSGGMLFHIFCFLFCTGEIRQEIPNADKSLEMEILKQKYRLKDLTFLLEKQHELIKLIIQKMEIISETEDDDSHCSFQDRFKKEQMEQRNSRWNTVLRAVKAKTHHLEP

For `O=C1C=C(O)C(=O)c2ccccc21`, the outcome in [1] was Active.
In the case of `COc1cc(/C=C/C=O)ccc1OC/C=C(\C)CCC=C(C)C`, in series [1], the outcome was Active. Besides, the result (with HEK293 [2]; in series [3]) was inactive.
Turning to `O=C1C=CC(=O)c2c(O)cccc21` [JUGLONE], the outcome (in the series with HEK293 [4]; in series [6]; in the series on HEK293 [2]; in [9]; in series [3]) was inactive. In addition, the result in [1], in series [5] and in series [8] was Active. Further, the EC50 in [7] stood at 1.7 µM.
As for `CC1=CC(=O)c2c(O)cccc2C1=O` [PLUMBAGIN], the result (with DRG neuron; in [15]; in the series on HEK293 [2]; in [3]) was inactive. Also, the result in series [1] and in [11] was Active. The values for the Activity in series [10], in series [12] and in series [14] were 65 pA/pF, 93.5 pA/pF and 50%, respectively. In addition, the logP in [13] is on record as 3.69. Moreover, the EC50 in [7] came to 0.46 µM.
Consider `COc1cc(/C=C/C(=O)O)ccc1OC/C=C(\C)CCC=C(C)C`, for which the result in series [1] was Active.
`COc1cc(/C=C/C=O)ccc1OCC=C(C)C` [BOROPINAL]: the result in series [1] was Active. For the same molecule, the result (in [16]; in series [14]; in the series on HEK293 [2]; in [3]) was inactive. In addition, in series [7], the EC50 was 9.8 µM.
On to `C=CCN=C=S`, for which the result (in the series with DRG neuron; in [17]) was inactive. The outcome in series [1], in series [5] and in [8] was Active.
For `CC(C)=CCC/C(C)=C/COc1ccc2ccc(=O)oc2c1`, the outcome in [1] was Active.

For orientation: EC50 means the concentration needed to bring the measured effect to its halfway point. In general, logP refers to the decadic logarithm of the partition coefficient of the neutral form, usually between octanol and water. A higher logP goes with higher lipophilicity.

Source of the values: ChEMBL document CHEMBL4425086 (J Nat Prod, 2016).
